Entries after “also recorded” stand apart in the source; their conditions may differ.
Assays:
ABHD4 = target: T1, ABHD4 (Homo sapiens, UniProt Q8TB40); experiment: Gel-based competitive ABPP, recombinant enzyme in transfected HEK293T cell lysates; assay type: biochemical; set-up: myc-his; expressed in transfected cells; host or cells: HEK293T, transient transfection, pcDNA3.1/myc-his; lysate used in vitro; settings: competitive ABPP with FP-Rh, 30 min 37° C.
T1 sequence (Q8TB40 1-342): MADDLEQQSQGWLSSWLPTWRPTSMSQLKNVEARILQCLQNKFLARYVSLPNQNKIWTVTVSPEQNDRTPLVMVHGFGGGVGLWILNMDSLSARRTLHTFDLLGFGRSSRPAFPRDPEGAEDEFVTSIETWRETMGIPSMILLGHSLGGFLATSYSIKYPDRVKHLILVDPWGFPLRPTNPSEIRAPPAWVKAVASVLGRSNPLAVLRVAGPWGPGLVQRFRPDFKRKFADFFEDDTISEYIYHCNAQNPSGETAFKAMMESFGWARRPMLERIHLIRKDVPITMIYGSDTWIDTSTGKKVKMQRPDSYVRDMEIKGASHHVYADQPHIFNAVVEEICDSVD
Procedure: (§1) HEK293T cells were seeded at 2×10^5 per well on 6 well plates and grown for 48 h. They were then transfected with mABHD3 (pCMV-Sport6), hABHD4 (pcDNA3.1/myc-his), hPPT1 (pCMV6-XL5), or hPPT1 S115A (pCMV6-XL5), by incubating 0.5 μg of DNA with 3 μL of PEI MAX (1 mg/mL, Polysciences, Inc) in serum-free DMEM for 30 min, then adding them to cells. After 48 h cells were either treated with compound in situ, as described above, or harvested for in vitro studies. The […] PPT1 mutation was introduced using QuikChange II Site Directed Mutagenesis Kit (Agilent) with the following primers: […]
Human ABHD3 and ABHD4 were recombinantly expressed by transient transfection in HEK293T cells, and the cell lysates were combined to provide a convenient assay for monitor inhibition of both enzymes by gel-based ABPP (see FIG. 8A). […]

PPT1 (wild type, S115A) [1] = experiment: Labeling of recombinant PPT1 by probes (gel-based ABPP, isoTOP-ABPP); assay type: biochemical, human; settings: transfected HEK293T lysates, CuAAC to azide-Rh, PNGaseF
Procedure: as §1
(§2) Whole cell lysates (500 μL, 1.5 mg/mL) of hPPT1 transfected HEK239Ts were processed for MS analysis using the previously described isoTOP-ABPP protocol (Weerapana et al., Nature 468, 790-795, 2010). In brief, for analysis of Compound 39-modified peptides, proteomes were split into two fractions, to which Compound 39 (5 μM, 60 min) or DMSO were added. […] MS1 peaks for probe-labeled quantified peptides were extracted with Xcalibur Qual Browser 2.2 (Thermo Scientific). […]
(§3) HEK293T cells were transfected with wild type and an S115A mutant of PPT1, lysed, and treated with Compound 39 followed by CuAAC conjugation to an azide-Rh tag, PNGaseF treatment, and analysis by SDS-PAGE. […] S115 was identified as the site of Compound 39 labeling on PPT1 using a quantitative MS method termed isoTOP-ABPP. […]

PPT1 (wild type, S115A) [2] = target: T2, PPT1 (wild type, S115A) (Homo sapiens, UniProt P50897); experiment: as above; assay type: biochemical; settings: transfected HEK293T cell lysates, gel-based ABPP
T2 construct: expressed in transfected cells; host or cells: HEK293T
Procedure: as §1, §2, §3

[3] = tested on: SHs in PC3 cell proteomes; experiment: Probe-versus-probe ABPP-SILAC, PC3 proteomes; assay type: biochemical, human; settings: Compound 39 5 μM, 1 h versus FP-biotin 2.5 μM
Procedure: Isotopically heavy- and light-labeled PC3 cells were treated with Compound 37 (1 μM) or DMSO for 4 h, respectively, lysed, and then treated Compound 39 (5 μM, 1 h). […] Among the handful of additional SH targets of Compound 37 were ABHD6 and PLA2G7, which were expected based on our ABPP-SILAC studies with FP-biotin (see FIG. 9), and protein-palmitoyl thioesterase 1 (PPT1), which was inhibited by more than 90%. […] Accordingly, PPT1 was not detected in our previous ABPP-SILAC studies with FP-biotin (see FIG. 9). The selective enrichment of PPT1 by Compound 39 was confirmed by performing a probe-versus-probe ABPP-SILAC study, where heavy and light PC3 proteomes were treated with FP-biotin (2.5 μM, 1 h) and Compound 39 (5 μM, 1 h), respectively. PPT1, along with two additional SHs LIPA and DDHD2, were preferentially enriched by Compound 39 over FP-biotin, while most of the other SHs were more strongly enriched by FP-biotin (see FIG. 13). A handful of SHs corresponding mostly to enzymes that were identified in our ABPP-SILAC studies as targets of Compound 37 (see FIGS. 9 and 12), were equivalently enriched by Compound 39 and FP-biotin (see FIG. 13).

T2 sequence (P50897 28-306 S115A): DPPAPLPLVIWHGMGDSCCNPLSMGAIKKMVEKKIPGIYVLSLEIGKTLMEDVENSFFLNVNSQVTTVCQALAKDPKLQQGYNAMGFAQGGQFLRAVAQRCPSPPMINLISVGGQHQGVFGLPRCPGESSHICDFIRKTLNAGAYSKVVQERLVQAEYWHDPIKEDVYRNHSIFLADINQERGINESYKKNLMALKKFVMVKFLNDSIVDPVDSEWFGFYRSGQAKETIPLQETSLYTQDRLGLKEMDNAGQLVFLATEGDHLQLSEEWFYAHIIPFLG

probe reactivity with recombinant hPPT1 (PPT1 (wild type, S115A) [2]): reacts; also recorded: reacted with PPT1
SMILES: C#CCOc1ccc(N2CCN(C(=O)ON3C(=O)C4CN(Cc5ccc(Oc6ccccc6)cc5)CCN4C3=O)CC2)cc1 (stereo not shown) [Compound 39, 1,3-dioxo-7-(4-phenoxybenzyl)hexahydroimidazo[1,5-a]pyrazin-2(3H)-yl 4-(4-(prop-2-yn-1-yloxy)phenyl)piperazine-1-carboxylate]
inhibition of ABHD4 in transfected HEK293T cell proteome (ABHD4): inhibited ABHD4 in transfected HEK293T cell proteome in a concentration-dependent manner
labeling of wild type PPT1 versus S115A mutant (PPT1 (wild type, S115A) [1]): labels recombinant wild type PPT1, but not the catalytic serine mutant (S115A); also recorded: strong labeling of wild-type PPT1, but not the S115A mutant
SHs preferentially enriched by Compound 39 over FP-biotin [3]: PPT1 and LIPA and DDHD2

From patent US9981972B2, “N-hydroxy bicyclic hydantoin carbamates as tools for identification of serine hydrolase targets” (ABIDE THERAPEUTICS, INC., priority 2014, dated 2018)
